# Experimental data: patent US10899710B2, “Pyridines and their use in the treatment of cancer” (The United States of America, as represented by the …, priority 2015, dated 2021)
# Counter-ions that a name gives are not always drawn. Like-named read-outs stand apart in the source and are kept apart here.
# Legend:
# [1] = target: T1, recombinant thioredoxin reductase 1 (TrxR1) (Homo sapiens, UniProt Q16881); assay: Inhibition of recombinant TrxR1 (DTNB assay); assay type: biochemical; settings: read-out: TrxR inhibition (IC50)
# T1 sequence (Q16881 151-649 limits assumed): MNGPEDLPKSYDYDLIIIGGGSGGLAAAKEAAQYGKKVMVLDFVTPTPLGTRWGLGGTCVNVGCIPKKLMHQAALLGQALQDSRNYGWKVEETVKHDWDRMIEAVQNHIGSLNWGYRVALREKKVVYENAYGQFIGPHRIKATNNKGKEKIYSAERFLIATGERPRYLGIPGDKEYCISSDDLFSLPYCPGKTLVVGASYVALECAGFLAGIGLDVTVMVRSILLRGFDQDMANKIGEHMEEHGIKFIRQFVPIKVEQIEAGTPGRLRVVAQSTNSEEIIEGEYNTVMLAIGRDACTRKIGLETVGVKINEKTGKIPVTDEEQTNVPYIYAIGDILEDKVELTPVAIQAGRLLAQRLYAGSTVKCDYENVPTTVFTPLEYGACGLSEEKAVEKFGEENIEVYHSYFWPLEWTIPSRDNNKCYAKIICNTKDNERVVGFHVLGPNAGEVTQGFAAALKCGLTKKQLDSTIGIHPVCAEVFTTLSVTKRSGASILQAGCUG
# Description: Small molecule inhibition of recombinant thioredoxin reductase 1 (TrxR1) and gluthathione reductase (GR) was examined in 96-well plate format. 15 nM TrxR1 was incubated in the presence of 250 μM NADPH, 0.1 mg/ml BSA, and various concentrations of the compound of Example 1 (1% DMSO final) in 50 mM Tris (pH 7.5) and 2 mM EDTA buffer for 15 minutes. Following the incubation period, 2.5 mM DTNB was added to each well and the change in O.D. at 412 nm was followed. Percent activity was determined using DMSO vehicle and no TrxR1 (blank) controls. 2 nM GR was incubated in the presence of 250 μM NADPH, 0.1 mg/ml BSA, and various concentrations of compounds (1% DMSO final) in 50 mM Tris (pH 7.5) and 2 mM EDTA buffer for 15 minutes. Following the incubation period, 1 mM GSSG was added to each well and the change in O.D. at 340 nm was followed. Percent activity was determined using DMSO vehicle and no GR (blank) controls.
# CCRF-CEM = assay: Growth inhibition GI50, CCRF-CEM; assay type: cell-based; settings: Homo sapiens, Leukemia
# Description: (§1) Cell lines were plated 2000 cells/well in 96-well black optical plates in the presence of 10% FBS media containing 25 nM selenite. The following day cells were treated with various concentrations of the compound of Example 1 (0.1% DMSO final) and incubated for 72 hrs. After the incubation Cell-Quanti Blue reagent was added to each well and incubated for additional 3 hrs. Fluorescence was read ex:530 nm/em:590 nm, and percent of viability was determined using DMSO vehicle and no cell (blank) controls.
# (§2) Further results obtained in similar experiments were as indicated below (GI50 refers to concentration of compound yielding 50% growth inhibition; E denotes an exponent to the base 10).
# HL-60(TB) = assay: Growth inhibition GI50, HL-60(TB); assay type: cell-based; settings: Homo sapiens, Leukemia
# Description: as §1, §2
# RPMI-8226 = assay: Growth inhibition GI50, RPMI-8226; assay type: cell-based; settings: Homo sapiens, Leukemia
# Description: as §1, §2
# HOP-92 = assay: Growth inhibition GI50, HOP-92; assay type: cell-based; settings: Homo sapiens, Non-Small Cell Lung Cancer
# Description: as §1, §2
# NCI-H322M = assay: Growth inhibition GI50, NCI-H322M; assay type: cell-based; settings: Homo sapiens, Non-Small Cell Lung Cancer
# Description: as §1, §2
# NCI-H460 = assay: Growth inhibition GI50, NCI-H460; assay type: cell-based; settings: Homo sapiens, Non-Small Cell Lung Cancer
# Description: as §1, §2
# NCI-H522 = assay: Growth inhibition GI50, NCI-H522; assay type: cell-based; settings: Homo sapiens, Non-Small Cell Lung Cancer
# Description: as §1, §2
# HCT-116 = assay: Growth inhibition GI50, HCT-116; assay type: cell-based; settings: Homo sapiens, Colon Cancer
# Description: as §1, §2
# HCT-15 = assay: Growth inhibition GI50, HCT-15; assay type: cell-based; settings: Homo sapiens, Colon Cancer
# Description: as §1, §2
# KM12 = assay: Growth inhibition GI50, KM12; assay type: cell-based; settings: Homo sapiens, Colon Cancer
# Description: as §1, §2
# SF-268 = assay: Growth inhibition GI50, SF-268; assay type: cell-based; settings: Homo sapiens, CNS Cancer
# Description: as §1, §2
# SF-295 = assay: Growth inhibition GI50, SF-295; assay type: cell-based; settings: Homo sapiens, CNS Cancer
# Description: as §1, §2
# SF-539 = assay: Growth inhibition GI50, SF-539; assay type: cell-based; settings: Homo sapiens, CNS Cancer
# Description: as §1, §2
# SNB-19 = assay: Growth inhibition GI50, SNB-19; assay type: cell-based; settings: Homo sapiens, CNS Cancer
# Description: as §1, §2
# SNB-75 = assay: Growth inhibition GI50, SNB-75; assay type: cell-based; settings: Homo sapiens, CNS Cancer
# Description: as §1, §2
# LOX IMVI = assay: Growth inhibition GI50, LOX IMVI; assay type: cell-based; settings: Homo sapiens, Melanoma
# Description: as §1, §2
# MALME-3M = assay: Growth inhibition GI50, MALME-3M; assay type: cell-based; settings: Homo sapiens, Melanoma
# Description: as §1, §2
# M14 = assay: Growth inhibition GI50, M14; assay type: cell-based; settings: Homo sapiens, Melanoma
# Description: as §1, §2
# MDA-MB-435 = assay: Growth inhibition GI50, MDA-MB-435; assay type: cell-based; settings: Homo sapiens, Melanoma
# Description: as §1, §2
# SK-MEL-5 = assay: Growth inhibition GI50, SK-MEL-5; assay type: cell-based; settings: Homo sapiens, Melanoma
# Description: as §1, §2
# UACC-62 = assay: Growth inhibition GI50, UACC-62; assay type: cell-based; settings: Homo sapiens, Melanoma
# Description: as §1, §2
# OVCAR-3 = assay: Growth inhibition GI50, OVCAR-3; assay type: cell-based; settings: Homo sapiens, Ovarian Cancer
# Description: as §1, §2
# OVCAR-8 = assay: Growth inhibition GI50, OVCAR-8; assay type: cell-based; settings: Homo sapiens, Ovarian Cancer
# Description: as §1, §2
# NCI/ADR-RES = assay: Growth inhibition GI50, NCI/ADR-RES; assay type: cell-based; settings: Homo sapiens, Ovarian Cancer
# Description: as §1, §2
# SK-OV-3 = assay: Growth inhibition GI50, SK-OV-3; assay type: cell-based; settings: Homo sapiens, Ovarian Cancer
# Description: as §1, §2
# 786-0 = assay: Growth inhibition GI50, 786-0; assay type: cell-based; settings: Homo sapiens, Renal Cancer
# Description: as §1, §2
# CAKI-1 = assay: Growth inhibition GI50, CAKI-1; assay type: cell-based; settings: Homo sapiens, Renal Cancer
# Description: as §1, §2
# RXF 393 = assay: Growth inhibition GI50, RXF 393; assay type: cell-based; settings: Homo sapiens, Renal Cancer
# Description: as §1, §2
# UO-31 = assay: Growth inhibition GI50, UO-31; assay type: cell-based; settings: Homo sapiens, Renal Cancer
# Description: as §1, §2
# MDA-MB-468 = assay: Growth inhibition GI50, MDA-MB-468; assay type: cell-based; settings: Homo sapiens, Breast Cancer
# Description: as §1, §2
# [2] = mouse, in vivo, iv, 10 mg/kg
# Description: Fox Chase male severe combined immunodeficiency (SCID, Charles River, #250) mice were inoculated with 1×10^6 FaDu cells in PBS at a pre-shaved region located at the anterior lateral thoracic wall. After 13 days of growth, tumors were caliper measured and treatments were initiated. […] Mouse health status was monitored daily, weight was measured, and tumor volume was recorded from caliper measurements.
smiles,measurement,setting,value
"COc1ccc([N+](=O)[O-])c(S(=O)(=O)c2ccc(Cl)cc2)n1 [Example 1, 2-((4-Chlorophenyl)sulphonyl)-6-methoxy-3-nitropyridine Hydrochloride]",IC50,"[1]; Biological Example 1, 15 nM TrxR1, 15 minutes incubation",0.012 µM
same,IC50,[1]; Biological Example 4,0.021 µM
same,GI50,CCRF-CEM,2.93 µM
same,GI50,HL-60(TB),6.81 µM
same,GI50,RPMI-8226,3.38 µM
same,GI50,HOP-92,2 µM
same,GI50,NCI-H322M,20.4 µM
same,GI50,NCI-H460,14.6 µM
same,GI50,NCI-H522,1.86 µM
same,GI50,HCT-116,2.9 µM
same,GI50,HCT-15,2.05 µM
same,GI50,KM12,14 µM
same,GI50,SF-268,4.57 µM
same,GI50,SF-295,13.1 µM
same,GI50,SF-539,3.39 µM
same,GI50,SNB-19,13 µM
same,GI50,SNB-75,11 µM
same,GI50,LOX IMVI,1.98 µM
same,GI50,MALME-3M,2 µM
same,GI50,M14,3.05 µM
same,GI50,MDA-MB-435,1.75 µM
same,GI50,SK-MEL-5,12 µM
same,GI50,UACC-62,3.56 µM
same,GI50,OVCAR-3,2.33 µM
same,GI50,OVCAR-8,3.67 µM
same,GI50,NCI/ADR-RES,4.93 µM
same,GI50,SK-OV-3,15.1 µM
same,GI50,786-0,2.51 µM
same,GI50,CAKI-1,1.61 µM
same,GI50,RXF 393,4.45 µM
same,GI50,UO-31,2.97 µM
same,GI50,MDA-MB-468,1.93 µM
same,Signs of general or systemic toxic effects,[2],no overt signs of general or systemic toxic effects
